Laboratory results taken from patent US11384078B2, “5,6-fused-bicyclic compounds and compositions for the treatment of parasitic diseases” (NOVARTIS AG, priority 2017, dated 2022).
pEC50: −log10 of the molar value.

Tests used:
Type in all cases: cell-based
[1] = test system: Leishmania donovani axenic amastigote; test: In vitro assay for growth inhibition of Leishmania donovani axenic amastigote (Cell TiterGlo luminescence); details: Leishmania donovani, L. donovani axenic amastigotes in vitro; read-out: L. donovani amastigotes EC50
Method in brief: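 Compound-treated wells received 9600 axenic amastigotes in RPMI 1640-based medium at pH 5.5 (37 °C, 5% CO2). Growth measured as ATP luminescence (CellTiter-Glo) after 2-day incubation; DMSO and reference compounds served as controls.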

[2] = test system: Trypanosoma brucei brucei (Lister 427) strain; test: Assay for growth inhibition against Trypanosoma brucei brucei (Cell TiterGlo ATP luminescence); details: Trypanosoma brucei, T. brucei brucei (Lister 427); read-out: T. Brucei (HAT) EC50
Method in brief: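 Growth read-out is cellular ATP by CellTiter-Glo luminescence, measured 30 min after reagent addition, following 2-day incubation at 37 °C in CO2. Parasites (10,000/mL, HMI-9 plus 10% FBS and 10% serum plus) faced 10 threefold dilutions in duplicate; IC50 taken as 50% growth inhibition versus untreated.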

[3] = test system: Trypanosoma cruzi amastigotes cultured in 3T3 fibroblast cells; test: Assay for growth inhibition of kinetoplastid parasite Trypanosoma cruzi (beta-galactosidase Tulahuen strain, CPRG readout); details: Trypanosoma cruzi, Fibroblast, T. cruzi amastigotes in 3T3 fibroblast cells; read-out: Buckner infectious T. cruzi EC50
Method in brief: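 3T3 fibroblasts (1,000 cells/well) plated overnight, treated with compound in DMSO, then infected with 10,000 Lac-Z-expressing Tulahuen trypomastigotes. After 6 days, 0.6 mM CPRG with 0.6% NP-40 added for 2 h at room temperature; absorbance gives relative intracellular amastigote numbers. Benznidazole and nifurtimox serve as positive controls.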

[4] = test system: L. donovani HU3 strain in mouse peritoneal macrophages; test: Assay for inhibition of parasitemia of Leishmania donovani in mouse macrophages (SYBR Green nuclei count, high-content imaging); details: Leishmania donovani, Peritoneal macrophage, L. donovani in mouse peritoneal macrophages; read-out: L. donovani in Mouse Macrophages EC50
Method in brief: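 Parasite numbers were counted from SYBR Green-stained nuclei imaged by high-content microscopy after paraformaldehyde fixation and Triton permeabilization. Before this, compound was applied for 5 days at 37° C to BALB/c peritoneal macrophages (2×10^4/well) that had been exposed 24 h to 4×10^5 L. donovani HU3 amastigotes harvested from infected mouse spleens.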

Structure (SMILES)	pEC50 [1]	pEC50 [2]	pEC50 [3]	pEC50 [4]
Cc1nc(C(=O)Nc2ccc(F)c(-n3cc4cc(C(C)C)cnc4n3)c2)co1 [Compound 85, N-{4-fluoro-3-[5-(propan-2-yl)-2H-pyrazolo[3,4-b]pyridin-2-yl]phenyl}-2-methyl-1,3-oxazole-4-carboxamide]	5.92	6.74	6.82	6.12
CC(C)c1cnc2nn(-c3cc(NC(=O)c4nc(Cl)ccc4F)ccc3F)cc2c1 [Compound 86, 6-chloro-3-fluoro-N-{4-fluoro-3-[5-(propan-2-yl)-2H-pyrazolo[3,4-b]pyridin-2-yl]phenyl}pyridine-2-carboxamide]	6.89	> 7.64	7.85	6.92
CC(C)c1cnc2nn(-c3cc(NC(=O)c4cnccn4)ccc3F)cc2c1 [Compound 87, N-(4-fluoro-3-(5-isopropyl-2H-pyrazolo[3,4-b]pyridin-2-yl)phenyl)pyrazine-2-carboxamide]	7.21	> 7.64	7.80	7.15
CC(C)c1cnc2nn(-c3cc(NC(=O)C4CCCO4)ccc3F)cc2c1 (stereo not drawn) [Compound 88, N-{4-fluoro-3-[5-(propan-2-yl)-2H-pyrazolo[3,4-b]pyridin-2-yl]phenyl}oxolane-2-carboxamide]	5.28	5.82	5.74	5.49
CC(C)c1cnc2nn(-c3cc(NC(=O)c4cc(Cl)ccc4F)ccc3F)cc2c1 [Compound 89, 5-chloro-2-fluoro-N-{4-fluoro-3-[5-(propan-2-yl)-2H-pyrazolo[3,4-b]pyridin-2-yl]phenyl}benzamide]	6.33	7.48	7.49	6.57
CC(C)c1cnc2nn(-c3cc(NC(=O)C4CC4)ccc3F)cc2c1 [Compound 90, N-{4-fluoro-3-[5-(propan-2-yl)-2H-pyrazolo[3,4-b]pyridin-2-yl]phenyl}cyclopropanecarboxamide]	6.55	7.11	6.85	6.51
O=C(Nc1ccc(F)c(-n2cc3cc(C4CC4)cnc3n2)c1)N1CCC1 [Compound 91, N-(3-{5-cyclopropyl-2H-pyrazolo[3,4-b]pyridin-2-yl}-4-fluorophenyl)azetidine-1-carboxamide]	8.06	> 7.64	8.39	8.07
O=C(Nc1ccc(F)c(-n2cc3cc(C4CCC4)cnc3n2)c1)N1CCC1 [Compound 93, N-(3-{5-cyclobutyl-2H-pyrazolo[3,4-b]pyridin-2-yl}-4-fluorophenyl)azetidine-1-carboxamide]	7.47	> 7.64	8.15	7.49
CC(C)(C)Cc1cnc2nn(-c3cc(NC(=O)N4CCC4)ccc3F)cc2c1 [Compound 94, N-{3-[5-(2,2-dimethylpropyl)-2H-pyrazolo[3,4-b]pyridin-2-yl]-4-fluorophenyl}azetidine-1-carboxamide]	7.92	> 7.64	8.74	8.09
CCCC(C)c1cnc2nn(-c3cc(NC(=O)N4CCC4)ccc3F)cc2c1 (stereo not drawn) [Compound 95, N-{4-fluoro-3-[5-(pentan-2-yl)-2H-pyrazolo[3,4-b]pyridin-2-yl]phenyl}azetidine-1-carboxamide]	6.38	7.07	6.77	6.46
CCC(C)c1cnc2nn(-c3cc(NC(=O)N4CCC4)ccc3F)cc2c1 (stereo not drawn) [Compound 96, N-{3-[5-(butan-2-yl)-2H-pyrazolo[3,4-b]pyridin-2-yl]-4-fluorophenyl}azetidine-1-carboxamide]	7.64	> 7.64	7.74	7.68
O=C(Nc1ccc(F)c(-n2cc3cc(CC4CCC4)cnc3n2)c1)N1CCC1 [Compound 97, N-{3-[5-(cyclobutylmethyl)-2H-pyrazolo[3,4-b]pyridin-2-yl]-4-fluorophenyl}azetidine-1-carboxamide]	7.92	> 7.64	8.06	6.36
